Assay results: patent US20070037739A1, “Compounds useful in coating stents to prevent and treat stenosis and restenosis” (Medlogics Device Corporation, priority 2003, published 2007)
Values after ≈ are worked out from the molar mass of the structure shown. Peptide text beside a SMILES is read from it.

How the values were obtained:
[1] = tested on: U937 cells; assay: TNF-induced DNA fragmentation in U937 cells; format: cell-based
Description: TNF-α-induced apoptosis in U937 monocytic leukemia cells can be used to evaluate the mechanism of apoptosis and its pharmacological manipulation in various diseases, including inflammation. This can be measured by internucleosomal DNA cleavage (Wright, S. C.; Kumar, P.; Tam, A. W.; Shen, N.; Varma, M.; Larrick, J. W. Apoptosis and DNA fragmentation precede TNF-induced cytolysis in U937 cells. J. Cell. Biochem., 1992, 48, 344-355). It has been shown that signal transduction pathways leading to apoptosis depend on the generation of free radicals (Buttke, T. M.; Sandstrom, P. A. Oxidative stress as a mediator of apoptosis. Immunol. Today, 1994, 15, 7-10) and alterations in the intracellular redox status through depletion of […] glutathione (GSH) (Ghibelli, L.; Coppola, S.; Rotilio, G.; Lafavia, E.; Maresca, V.; Ciriolo, M. R. Nonoxidative loss of gluthione in apoptosis via GSH extrusion. Biochem. Biophys. Res. Comm. 1995, 216, 313-320; van den Dobbelsteen, D. J.; Stefen, C.; Nobel, I.; Schlegel, J.; Cotgreave, I. A; Orrenius, S.; Slater, A. R. G. Rapid and specific efflux of reduced glutathione during apoptosis induced by anti-Fas/APO-1 antibody. J. Cell. Biochem., 1996, 271, 15420-15427).

[2] = tested on: pulmonary macrophages; conditions: cited from earlier work
[3] = injected, 400 mg/kg; cited from earlier work
[4] = tested on: human cartilage; conditions: in vitro; cited from earlier work
[5] = tested on: peripheral blood mononuclear cells (PBMNC); conditions: 100 μg/ml; mycobacterial 60 kDa heat shock protein 5 μg/ml; six RA patients; cited from earlier work
[6] = tested on: neutrophils; conditions: PMA-stimulated rat neutrophils; cited from earlier work
[7] = biological target: T1, NADPH oxidase (Homo sapiens, UniProt P04839); conditions: read-out: IC50 to inhibit NADPH oxidase activity; cited from earlier work
T1 sequence (P04839 2-570 limits assumed): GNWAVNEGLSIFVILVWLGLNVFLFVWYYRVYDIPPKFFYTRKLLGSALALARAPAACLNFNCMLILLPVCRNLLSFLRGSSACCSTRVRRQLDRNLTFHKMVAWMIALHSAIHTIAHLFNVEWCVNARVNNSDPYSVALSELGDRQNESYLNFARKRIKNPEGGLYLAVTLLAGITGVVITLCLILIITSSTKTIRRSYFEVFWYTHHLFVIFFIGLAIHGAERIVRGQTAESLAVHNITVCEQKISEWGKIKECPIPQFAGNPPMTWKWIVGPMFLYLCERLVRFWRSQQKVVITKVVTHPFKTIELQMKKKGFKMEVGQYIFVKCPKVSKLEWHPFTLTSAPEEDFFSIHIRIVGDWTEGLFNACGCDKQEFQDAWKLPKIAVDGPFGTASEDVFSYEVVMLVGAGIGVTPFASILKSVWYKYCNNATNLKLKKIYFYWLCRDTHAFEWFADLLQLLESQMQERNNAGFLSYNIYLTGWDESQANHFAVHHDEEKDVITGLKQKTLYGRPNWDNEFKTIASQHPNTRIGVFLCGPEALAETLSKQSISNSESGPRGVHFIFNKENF

[8] = tested on: J-774A.1 cells; conditions: cited from earlier work
[9] = tested on: peritoneal macrophages; conditions: cited from earlier work
[10] = tested on: neutrophils; conditions: PMA- and zymosan-stimulated neutrophils, healthy human volunteers; cited from earlier work
[11] = cited from earlier work
[12] = 12 mg/d through inhalation for four days; cited from earlier work
[13] = cited from earlier work; remark: listed apart in the source
[14] = tested on: PBMNC; conditions: LPS- and PG-stimulated PBMNC, healthy human donors; cited from earlier work
[15] = Balloon-induced intimal injury (restenosis); format: in vivo; conditions: DAA-1 treated animals
Description: Following balloon-induced […] intimal injury, rats were give daily intravenous saline or DAA-I at 15, 30 or 45 pmol/kg×14d.

**Q.** With `COc1cc(C(C)=O)ccc1OC(C)=O` [Compound 1, 4-Acetoxy-3-methoxyacetophenone] as the compound, how does the “IC50 (μg/ml), protective effect against TNF-induced DNA fragmentation” value (shortened to “IC50 (μg/ml), protective effect”) [1] read?
**A.** Its value is 43 µg/mL (≈ 207 µM).

**Q.** And the “potency compared with apocynin (from IC50 values)” value [1]?
**A.** Its value is “more potent than apocynin”.

**Q.** With `COc1cc(C(C)=O)cc(NC(C)=O)c1O` [Compound 4, 5-Acetoamido-4-hydroxy-3-methoxyacetophenone] as the compound, how does the “IC50 (μg/ml), protective effect” value [1] read?
**A.** Its value is 37 µg/mL (≈ 166 µM).

**Q.** What about the “potency compared with apocynin (from IC50 values)” value [1] of the same compound?
**A.** The value was “more potent than apocynin”.

**Q.** Which “IC50 (μg/ml), protective effect” value [1] does the source give for `COc1cc(C(C)=O)cc([N+](=O)[O-])c1O` [Compound 2, 4-Hydroxy-3-methoxy-5-nitroacetophenone] here?
**A.** The value was 90 µg/mL (≈ 426 µM).

**Q.** For `COc1cc(C(C)=O)cc(N)c1O.Cl` [Compound 3, 5-Amino-4-hydroxy-3-methoxyacetophenone hydrochloride], which “IC50 (μg/ml), protective effect” value [1] is on record?
**A.** The value was 80 µg/mL.

**Q.** With `COc1cc(C(C)=O)ccc1O` [apocynin] as the compound, how does the “production of prostaglandin E2” value [2] read?
**A.** The value was “increases the production of prostaglandin E2”.

**Q.** And the “obvious effects on the mice” value [3]?
**A.** Its value is “no obvious effects”.

**Q.** And the “cartilage destruction and adverse effects on cartilage” value [4]?
**A.** The value was “can counteract human RA-inflammation-mediated cartilage destruction without having adverse effects on human cartilage”.

**Q.** What about the “inhibition of production of IL-1” value [5] of the same compound?
**A.** The value was “greater than 50%”.

**Q.** And the “inhibition of production of TNF-α” value [5]?
**A.** The value was “greater than 50%”.

**Q.** And the “production of ROS” value [6]?
**A.** The value was “competitively inhibited, in a dose-dependent manner”.

**Q.** What about the IC50 [7] of the same compound?
**A.** Its IC50 is 9.6 µM.

**Q.** And the “release of superoxide to the medium” value ([8]; 100 μg/ml, cells+LDL+Cu2+ or cells+PMA)?
**A.** The value was “completely blocked”.

**Q.** What about the “macrophage-released superoxides, apocynin alone” value ([8]; non-activated cells) of the same compound?
**A.** The value was 0.2 nmol superoxide/10^6 cells.

**Q.** And the oxidative burst ([9]; apocynin 10 mM 25 min before myelin and zymosan, controls 75%)?
**A.** The oxidative burst was “about 5%”.

**Q.** And the phagocytosis of myelin ([9]; rat peritoneal macrophages)?
**A.** Its phagocytosis of myelin is “dose-dependently inhibited”.

**Q.** What about the “concentration inhibiting ROS production by 50%” value [10] of the same compound?
**A.** Its value is 4 µg/mL.

**Q.** And the “decrease of glutathione levels induced by ozone exposure” value ([11]; 5 mg/kg orally, pretreatment)?
**A.** The value was “almost completed inhibited”.

**Q.** What about the “mean redox value (glutathione)” value ([11]; apocynin pretreatment, air 15.4%, ozone 32.0%) of the same compound?
**A.** The value was 18.3%.

**Q.** What about the side effects [12] of the same compound?
**A.** Its side effects is “no side effects”.

**Q.** What about the “joint inflammation at lowest dose” value ([13]; 24 μg/kg) of the same compound?
**A.** The value was “protected the animals against joint inflammation”.

**Q.** What about the “joint swelling at highest dose” value ([13]; 200 μg/ml) of the same compound?
**A.** Its value is “again inhibited joint swelling”.

**Q.** What about the joint inflammation ([13]; CIA rats, overall) of the same compound?
**A.** The joint inflammation was “significantly inhibited”.

**Q.** What about the IL-6 production ([13]; CIA rats) of the same compound?
**A.** Its IL-6 production is “reduced IL-6 production”.

**Q.** What about the “swelling after termination of treatment” value ([13]; CIA rats) of the same compound?
**A.** Its value is “did not result in a flare-up of the swelling”.

**Q.** And the TNF-α release [14]?
**A.** Its TNF-α release is “dose-dependently inhibited”.

**Q.** What about the IC50 ([1]; Homo sapiens, U-937, read-out: IC50 (μg/ml), protective effect against TNF-induced DNA fragmentation) of the same compound?
**A.** The IC50 was 64 µg/mL (≈ 385 µM).

**Q.** For `CC[C@H](C)[C@H](NC(=O)[C@H](Cc1ccc(O)cc1)NC(=O)[C@@H](NC(=O)[C@@H](N)CCCNC(=N)N)C(C)C)C(=O)N[C@@H](Cc1c[nH]cn1)C(=O)N1CCC[C@H]1C(=O)N[C@@H](Cc1ccccc1)C(=O)N[C@@H](Cc1c[nH]cn1)C(=O)N[C@@H](CC(C)C)C(=O)O` [DAA-I, Arg-Val-Tyr-IIe-His-pro-Phe-His-Leu] (H-RVYIHPFHL-OH), which toxicity [15] is on record?
**A.** The toxicity was “no appreciable toxicity was detected”.
